In ChEMBL document CHEMBL3244367, “Synthesis and determination of antiviral activity of the 2'(3')-O-methyl derivatives of ribavirin (1-beta-D-ribofuranosyl-1,2,4-triazole-3-carboxamide)” (1977):
Converted amounts (≈) assume the structure as drawn.

What follows are molecules tested on Vaccinia virus (assay: Antiviral activity against Vaccinia virus infected in primary rabbit kidney cells assessed as inhibition of virus-induced cytopathogenicity treated immediately after virus adsorption measured 2 days after virus infection). Settings: Orthopoxvirus vaccinia, 48 h.
Assay type: functional

| SMILES | MIC50 |
| --- | --- |
| CO[C@@H]1[C@H](O)[C@@H](CO)O[C@H]1n1cnc(C(N)=O)n1 | > 200 µg/mL |
| CO[C@H]1[C@@H](O)[C@H](n2cnc(C(N)=O)n2)O[C@@H]1CO | > 200 µg/mL |
| NC(=O)c1ncn([C@@H]2O[C@H](CO)[C@@H](O)[C@H]2O)n1 [RIBAVIRIN] | 20 µg/mL (≈ 81.9 µM) |
